Test results as given in patent US20160242416A1, “FUNGICIDAL ISOXAZOLINE CARBINOLS” (E I DU PONT DE NEMOURS AND COMPANY, priority 2015, published 2016).

Legend:
Stagonospora nodorum = test: Test D: wheat glume blotch, preventive spray on wheat seedlings; conditions: 10 ppm; wheat glume blotch; 100 = 100% disease control, 0 = no control
[1] = tested on: Erysiphe graminis f sp. tritici; test: Test G: wheat powdery mildew, preventive spray on wheat seedlings; conditions: 10 ppm; wheat powdery mildew; 100 = 100% disease control, 0 = no control
Source text: (§1) General protocol for preparing test solutions for Tests A-G: the test compounds were first dissolved in acetone in an amount equal to 3% of the final volume and then suspended at the desired concentration (in ppm) in acetone and purified water (50/50 mix by volume) containing 250 ppm of the surfactant PEG400 (polyhydric alcohol esters). The resulting test suspensions were then used in Tests A-G. Compounds were sprayed at a concentration of 50 ppm (*) or 10 ppm to the point of run-off on the test plants, the equivalent of a rate of 200 g/ha or 40 g/ha, respectively.
The test solution was sprayed to the point of run-off on wheat seedlings. The following day the seedlings were inoculated with a spore dust of Erysiphe graminis f sp. tritici, (the causal agent of wheat powdery mildew) and incubated in a growth chamber at 20° C. for 8 days, after which time visual disease ratings were made.
(§2) Compounds with an asterisks (*) were applied at a concentration of 50 ppm, otherwise test solutions were applied at 10 ppm.

Botrytis cinerea = test: Test B: gray mold, preventive spray on tomato seedlings; conditions: 10 ppm; gray mold on tomato; 100 = 100% disease control, 0 = no control
Source text: as §1
The test solution was sprayed to the point of run-off on tomato seedlings. The following day the seedlings were inoculated with a spore suspension of Botrytis cinerea (the causal agent of gray mold on many crops) and incubated in a saturated atmosphere at 20° C. for 48 h, and moved to a growth chamber at 27° C. for 2 days, after which time visual disease ratings were made.
as §2

[2] = tested on: Puccinia recondita f sp. tritici; test: Test F: wheat leaf rust, preventive spray on wheat seedlings; conditions: 10 ppm; wheat leaf rust; 100 = 100% disease control, 0 = no control
Zymoseptoria tritici = test: Test E: wheat leaf blotch, preventive spray on wheat seedlings; conditions: 10 ppm; wheat leaf blotch; 100 = 100% disease control, 0 = no control

SMILES	Test D rating (% disease control) (Stagonospora nodorum) [%]	Test G rating (% disease control) [1] [%]	Test B rating (% disease control) (Botrytis cinerea) [%]	Test F rating (% disease control) [2] [%]	Test E rating (% disease control) (Zymoseptoria tritici) [%]
OC(Cn1cncn1)(C1=NOC(Cc2ccc(Br)cc2)C1)c1ccc(Cl)cc1 (single isomer, unassigned) [Compound 54]	87	99	0	100	0
CC(C)(C)CC1CC(C(O)(Cn2cncn2)c2ccc(Cl)cc2)=NO1 (single isomer, unassigned) [Compound 75]	58	97	0	90	0
CC(C)(C)C(O)(Cn1cncn1)C1=NOC(CCc2ccc(C(F)(F)F)cc2)C1 (single isomer, unassigned) [Compound 14]	88	99	0	100	4
CC(C)(C)CC(O)(Cn1cncn1)C1=NOC(Cc2ccc(Cl)cc2)C1 (single isomer, unassigned) [Compound 207]	99	100	0	100	44
OC(Cn1cncn1)(C1=NOC(c2cnccn2)C1)c1ccc(Cl)cc1 (single isomer, unassigned) [Compound 157]	0	26	0	0	0
OC(Cn1cncn1)(C1=NOC(c2ccc(Cl)cc2)C1)c1ccc(Oc2ccccc2)cc1 (mixture of isomers) [Compound 152]	0	87	0	50	34
CC(C)(C)C(O)(Cn1cncn1)C1=NOC(COc2ccc(Cl)nc2)C1 (single isomer, unassigned) [Compound 98]	0	55	0	88	0
OC(Cn1cncn1)(C1=NOC(COc2ccc(F)cc2)C1)c1ccc(Cl)cc1 (single isomer, unassigned) [Compound 163]	0	86	0	99	0
CC(C)(C)C(O)(Cn1cncn1)C1=NOC(Cc2ccc(Cl)c(Cl)c2)C1 (single isomer, unassigned) [Compound 23]	97	100	0	100	89
CCC(C)(C)C(O)(Cn1cncn1)C1=NOC(Cc2ccc(Cl)cc2)C1 (single isomer, unassigned) [Compound 18]	87	99	0	100	6
OC(Cn1cncn1)(C1=NOC(c2ccc(C(F)(F)F)cc2)C1)c1ccc(C(F)(F)F)cc1 (single isomer, unassigned) [Compound 154]	0	83	0	52	1
CC(C)(C)C(O)(Cn1cncn1)C1=NOC(COc2ccc(-n3cccn3)cc2)C1 (single isomer, unassigned) [Compound 28]	39	99	24	0	0
